Legend:
[1] = test system: cultured trigeminal ganglion neurons; conditions: caused by nerve growth factor exposure; cited from earlier work
[2] = test system: hindpaw incision; conditions: topical, cited from earlier work
[3] = test system: rat; assay: Orbital tightening (OT) after heptanol corneal abrasion injury, pre-clinical model of PRK; assay type: in vivo; conditions: 24 hours post-injury; topical eye drops; FIG. 6B; abrasion increases OT scores
Procedure: A unilateral corneal injury was performed using topical application of heptanol. FIG. 3 is a diagram of a corneal abrasion method using topical application 310 of heptanol performed on an anesthetized rat. A local anesthetic was applied to the eye 320 via ophthalmic drops. A small metal ring 330 was then secured to the corneal surface with petroleum jelly. Heptanol (10 μL) 340 was placed inside the ring for 90 seconds, the heptanol was removed from inside the ring with a cotton swab and the eye is rinsed profusely with saline. The loose corneal epithelium was then removed with a cotton applicator 350. FIG. 4 is a graph representing of acute hyperalgesia after corneal abrasion injury, illustrating that this method induces photophobia as well as hyperalgesia to ocular application of menthol. This method produces abrasions of relatively uniform size and depth, in contrast to other mechanical abrasion methods.
In various embodiments, topical (ophthalmic) application of the compositions described herein can reduce or eliminate the hyperalgesia produced by corneal abrasion in a pre-clinical model of PRK. […]
Doses of trans-resveratrol up to 4% (corresponding to up to […] in 10 μL) were tested. […] Topical application is efficacious, because resveratrol is very lipophilic and should be readily taken up into the tear film that covers the surface of the eye. […]

[4] = test system: corneal epithelium; assay type: in vivo, rat; conditions: capsaicin application, FIG. 5C
Excerpt: Deeper wounds may remove the basement membrane and prevent reinnervation (at least in some strains of mice).

[5] = test system: sodium channels; conditions: in vivo; cited from earlier work
[6] = cited from earlier work

Oc1ccc(C=Cc2cc(O)cc(O)c2)cc1 (racemic) [resveratrol]
hyperexcitability of neurons [1]: reduce hyperexcitability | hyperalgesic priming ([2]; 14-days after incision): prevents the full development | acute hyperalgesia ([2]; following hindpaw incision): attenuates | orbital tightening (OT) scores [3]: dose-dependent trend for resveratrol to reverse this

COc1cc(CNC(=O)CCCC/C=C/C(C)C)ccc1O [capsaicin]
overall epithelial structure (H&E stain) [4]: does not alter overall epithelial structure

NC1=N[C@H](O)[C@H]2[C@H]3O[C@]4(O)O[C@@H]([C@@H](O)[C@@]2(N1)[C@@H]4O)[C@]3(O)CO [TTX, tetrodotoxin]
photophobia [5]: can reduce the photophobia | solubility in tear film [6]: not soluble in tear film

Reference: patent US20210046018A1 (priority 2019, published 2021)
